Read-outs that look alike come from different tables or passages of the source.
Tests used:
Type in all cases: cell-based
[1] = molecular target: T1, protein kinases (human kinome) (Homo sapiens, UniProt O14976); conditions: for logFC of GAK (O14976): down; for logFC GAK: GAK (O14976), direction down
T1 sequence (O14976 1-1311): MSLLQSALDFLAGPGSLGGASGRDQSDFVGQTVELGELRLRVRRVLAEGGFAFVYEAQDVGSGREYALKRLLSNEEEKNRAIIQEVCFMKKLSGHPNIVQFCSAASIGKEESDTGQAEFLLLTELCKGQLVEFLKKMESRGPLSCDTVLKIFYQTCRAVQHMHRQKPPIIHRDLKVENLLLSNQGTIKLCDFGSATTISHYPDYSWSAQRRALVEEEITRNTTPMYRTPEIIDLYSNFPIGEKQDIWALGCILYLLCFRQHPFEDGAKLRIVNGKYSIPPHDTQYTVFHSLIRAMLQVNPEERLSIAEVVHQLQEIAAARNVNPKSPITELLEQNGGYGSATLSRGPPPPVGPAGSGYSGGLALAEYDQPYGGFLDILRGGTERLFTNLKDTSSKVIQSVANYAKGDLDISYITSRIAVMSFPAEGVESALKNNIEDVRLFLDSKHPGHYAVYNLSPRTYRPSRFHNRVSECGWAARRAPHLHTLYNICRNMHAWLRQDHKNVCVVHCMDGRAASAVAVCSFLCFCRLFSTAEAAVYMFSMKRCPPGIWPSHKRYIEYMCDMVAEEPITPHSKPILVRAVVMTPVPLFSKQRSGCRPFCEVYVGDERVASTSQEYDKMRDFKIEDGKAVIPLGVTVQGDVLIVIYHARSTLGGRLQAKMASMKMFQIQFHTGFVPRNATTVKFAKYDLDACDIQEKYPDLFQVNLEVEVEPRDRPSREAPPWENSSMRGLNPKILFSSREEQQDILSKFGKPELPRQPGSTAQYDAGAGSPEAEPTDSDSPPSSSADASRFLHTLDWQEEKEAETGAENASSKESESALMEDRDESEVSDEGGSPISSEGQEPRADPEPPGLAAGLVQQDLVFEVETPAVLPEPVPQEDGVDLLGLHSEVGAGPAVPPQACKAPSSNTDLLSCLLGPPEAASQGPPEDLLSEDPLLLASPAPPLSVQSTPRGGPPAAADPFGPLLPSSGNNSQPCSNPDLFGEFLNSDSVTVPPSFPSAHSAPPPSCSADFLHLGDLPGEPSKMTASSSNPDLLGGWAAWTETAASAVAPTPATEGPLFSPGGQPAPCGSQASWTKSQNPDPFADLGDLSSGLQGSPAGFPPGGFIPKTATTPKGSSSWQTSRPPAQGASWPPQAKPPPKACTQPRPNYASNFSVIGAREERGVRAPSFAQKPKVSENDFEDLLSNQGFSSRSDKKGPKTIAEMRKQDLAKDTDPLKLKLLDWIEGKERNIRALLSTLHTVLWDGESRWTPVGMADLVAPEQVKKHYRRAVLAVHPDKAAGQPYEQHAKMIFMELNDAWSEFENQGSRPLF

[2] = molecular target: protein kinases (human kinome) (Homo sapiens, UniProt P30291); conditions: for logFC of WEE1: WEE1 P30291-1
[3] = molecular target: protein kinases (human kinome) (Homo sapiens, UniProt P16591); conditions: for logFC of FER (P16591-1): down; for logFC of FER: FER P16591-1
[4] = molecular target: T2, protein kinases (human kinome) (Homo sapiens, UniProt O14965)
T2 sequence (O14965 1-403): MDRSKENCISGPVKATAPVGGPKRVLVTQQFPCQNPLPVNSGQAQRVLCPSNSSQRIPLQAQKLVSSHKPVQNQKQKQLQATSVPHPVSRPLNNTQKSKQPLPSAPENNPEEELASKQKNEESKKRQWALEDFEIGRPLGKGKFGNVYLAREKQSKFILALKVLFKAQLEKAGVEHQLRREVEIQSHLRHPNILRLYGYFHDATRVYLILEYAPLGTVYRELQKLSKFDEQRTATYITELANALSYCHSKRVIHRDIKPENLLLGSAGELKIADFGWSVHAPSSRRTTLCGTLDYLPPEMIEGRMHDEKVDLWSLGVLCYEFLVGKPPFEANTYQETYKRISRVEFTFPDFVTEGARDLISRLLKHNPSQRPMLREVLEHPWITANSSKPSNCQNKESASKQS

[5] = molecular target: protein kinases (human kinome) (Homo sapiens, UniProt Q2M2I8)
Sequence of protein kinases (human kinome) (Homo sapiens, UniProt Q2M2I8) (Q2M2I8 whole entry): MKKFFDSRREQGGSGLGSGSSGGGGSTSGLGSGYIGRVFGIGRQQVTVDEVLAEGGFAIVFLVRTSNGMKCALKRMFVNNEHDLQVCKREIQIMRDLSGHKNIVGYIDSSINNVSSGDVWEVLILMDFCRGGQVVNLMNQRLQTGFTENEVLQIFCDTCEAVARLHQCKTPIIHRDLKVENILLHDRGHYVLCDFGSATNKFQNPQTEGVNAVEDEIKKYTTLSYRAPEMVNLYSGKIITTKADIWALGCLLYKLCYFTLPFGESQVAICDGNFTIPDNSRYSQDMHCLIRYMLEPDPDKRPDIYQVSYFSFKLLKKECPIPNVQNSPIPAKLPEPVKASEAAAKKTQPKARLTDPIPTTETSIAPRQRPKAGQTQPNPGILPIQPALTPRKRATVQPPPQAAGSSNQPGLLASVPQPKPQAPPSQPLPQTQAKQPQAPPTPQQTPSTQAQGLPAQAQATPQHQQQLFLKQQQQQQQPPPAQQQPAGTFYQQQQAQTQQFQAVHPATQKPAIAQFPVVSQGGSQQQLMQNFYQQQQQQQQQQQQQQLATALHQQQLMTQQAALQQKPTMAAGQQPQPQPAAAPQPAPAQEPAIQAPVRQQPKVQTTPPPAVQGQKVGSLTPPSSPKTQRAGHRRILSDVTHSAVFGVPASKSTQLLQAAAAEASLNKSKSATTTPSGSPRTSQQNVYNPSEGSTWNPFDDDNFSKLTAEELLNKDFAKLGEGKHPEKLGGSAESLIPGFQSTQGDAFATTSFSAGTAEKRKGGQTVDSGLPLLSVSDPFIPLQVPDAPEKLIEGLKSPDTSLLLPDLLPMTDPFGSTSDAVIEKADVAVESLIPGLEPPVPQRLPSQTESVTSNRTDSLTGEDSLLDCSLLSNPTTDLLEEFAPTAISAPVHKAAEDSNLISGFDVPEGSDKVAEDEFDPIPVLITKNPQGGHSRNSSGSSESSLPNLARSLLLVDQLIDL

Sequence of protein kinases (human kinome) (Homo sapiens, UniProt P16591) (P16591 whole entry): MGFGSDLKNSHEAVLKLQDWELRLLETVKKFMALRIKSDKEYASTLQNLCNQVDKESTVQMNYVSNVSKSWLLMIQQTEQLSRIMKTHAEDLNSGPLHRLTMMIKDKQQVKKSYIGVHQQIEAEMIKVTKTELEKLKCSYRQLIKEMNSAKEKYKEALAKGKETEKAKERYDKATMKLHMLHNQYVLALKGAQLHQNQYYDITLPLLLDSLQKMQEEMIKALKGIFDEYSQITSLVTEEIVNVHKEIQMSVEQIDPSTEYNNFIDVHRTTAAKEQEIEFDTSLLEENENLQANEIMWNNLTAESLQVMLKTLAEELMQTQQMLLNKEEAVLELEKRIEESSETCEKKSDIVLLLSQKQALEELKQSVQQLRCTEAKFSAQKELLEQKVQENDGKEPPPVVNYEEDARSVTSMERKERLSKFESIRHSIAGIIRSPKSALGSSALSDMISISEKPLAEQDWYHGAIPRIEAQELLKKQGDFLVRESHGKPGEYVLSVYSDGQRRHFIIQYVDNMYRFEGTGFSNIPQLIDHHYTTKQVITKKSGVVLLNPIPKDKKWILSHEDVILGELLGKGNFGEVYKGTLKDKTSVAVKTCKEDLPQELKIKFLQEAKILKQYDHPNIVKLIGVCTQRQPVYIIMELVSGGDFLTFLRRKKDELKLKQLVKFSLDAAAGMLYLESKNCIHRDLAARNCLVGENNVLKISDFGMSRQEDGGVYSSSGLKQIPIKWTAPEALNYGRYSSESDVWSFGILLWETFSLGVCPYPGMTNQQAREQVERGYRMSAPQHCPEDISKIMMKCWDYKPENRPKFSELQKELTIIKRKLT
Sequence of protein kinases (human kinome) (Homo sapiens, UniProt P30291) (P30291 whole entry): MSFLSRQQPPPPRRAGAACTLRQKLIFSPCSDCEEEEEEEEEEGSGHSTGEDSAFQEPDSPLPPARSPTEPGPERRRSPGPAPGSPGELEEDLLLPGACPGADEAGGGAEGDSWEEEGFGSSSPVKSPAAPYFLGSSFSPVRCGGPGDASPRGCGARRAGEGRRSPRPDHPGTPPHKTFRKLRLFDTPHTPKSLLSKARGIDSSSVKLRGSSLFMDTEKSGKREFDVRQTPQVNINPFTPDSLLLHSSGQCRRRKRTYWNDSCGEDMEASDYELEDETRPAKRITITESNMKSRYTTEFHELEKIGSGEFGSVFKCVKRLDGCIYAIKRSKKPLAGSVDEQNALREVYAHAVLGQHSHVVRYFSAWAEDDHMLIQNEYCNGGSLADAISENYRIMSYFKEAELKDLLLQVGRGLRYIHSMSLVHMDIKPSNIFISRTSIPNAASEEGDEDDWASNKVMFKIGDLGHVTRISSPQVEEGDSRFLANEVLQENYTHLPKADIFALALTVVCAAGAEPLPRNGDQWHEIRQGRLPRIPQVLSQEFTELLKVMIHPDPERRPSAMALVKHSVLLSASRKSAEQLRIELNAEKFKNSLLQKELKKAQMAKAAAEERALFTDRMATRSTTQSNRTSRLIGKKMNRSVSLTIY

CS(=O)(=O)Nc1cccc(-c2csc3cnc(Nc4ccc(N5CCN(CCCCCOc6cccc7c6C(=O)N(C6CCC(=O)NC6=O)C7=O)CC5)cc4)nc23)c1 (stereo not drawn) [DB0614, N-(3-(2-((4-(4-(5-((2-(2,6-Dioxopiperidin-3-yl)-1,3-dioxoisoindolin-4-yl)oxy)pentyl)piperazin-1-yl)phenyl)amino)thieno[3,2-d]pyrimidin-7-yl)phenyl)methanesulfonamide]
logFC of GAK (O14976) ([1]; Experiment wp045): −0.3305
logFC of GAK (O14976) ([1]; Experiment wp117): −0.4196
logFC GAK ([1]; experiment wp045): −0.3305
logFC GAK ([1]; experiment wp117): −0.4196
logFC of WEE1 ([2]; experiment wp117): −1.777
logFC WEE1 (P30291-1) ([2]; experiment wp045): −1.876
logFC WEE1 (P30291-1) ([2]; experiment wp117): −1.777
logFC of FER (P16591-1) ([3]; Experiment wp045): −0.7641
logFC of FER (P16591-1) ([3]; Experiment wp117): −0.7725
logFC of FER ([3]; experiment wp045): −0.7641
logFC of FER ([3]; experiment wp117): −0.7725
logFC AURKA (O14965) ([4]; experiment wp045): −0.385
logFC AURKA (O14965) ([4]; experiment wp117): −0.4547
logFC AAK1 ([5]; AAK1 (Q2M218-1), experiment wp045, down): −1.863
logFC AAK1 ([5]; AAK1 (Q2M218-1), experiment wp117, down): −1.652
logFC AAK1 ([5]; AAK1, accession Q2M218-1, experiment wp045, direction of change down): −1.863
logFC AAK1 ([5]; AAK1, accession Q2M218-1, experiment wp117, direction of change down): −1.662

CC(C)S(=O)(=O)c1ccccc1Nc1nc(Nc2ccc(N3CCN(CCOCCNC(=O)CNc4ccc5c(c4)C(=O)N(C4CCC(=O)NC4=O)C5=O)CC3)cc2)ncc1Cl (stereo not drawn) [SK.3.93]
logFC of GAK (O14976) ([1]; Experiment wp016): −0.4334
logFC GAK ([1]; experiment wp016): −0.4334
logFC WEE1 (P30291-1) ([2]; experiment wp016): −1.176
logFC of FER (P16591-1) ([3]; Experiment wp016): −2.64
logFC of FER ([3]; experiment wp016): −2.64
logFC AURKA (O14965) ([4]; experiment wp016): −1.823
logFC AAK1 ([5]; AAK1 (Q2M218-1), experiment wp016, down): −1.588
logFC AAK1 ([5]; AAK1, accession Q2M218-1, experiment wp016, direction of change down): −1.588

Cc1ncsc1-c1ccc([C@H](C)NC(=O)[C@@H]2C[C@@H](O)CN2C(=O)[C@@H](NC(=O)CCOCCOCCN2CCN(c3ccc(Nc4ncc(Cl)c(Nc5ccccc5S(=O)(=O)C(C)C)n4)cc3)CC2)C(C)(C)C)cc1 [FMF.06.098.1]
logFC of GAK (O14976) ([1]; Experiment wp108): −0.4156
logFC of GAK (O14976) ([1]; Experiment wp131): −0.3469
logFC GAK ([1]; experiment wp108): −0.4156
logFC GAK ([1]; experiment wp131): −0.3469
logFC WEE1 (P30291-1) ([2]; Experiment wp108): −1.98
logFC of WEE1 ([2]; experiment wp108): −1.98
logFC of WEE1 ([2]; experiment wp131): −2.183
logFC WEE1 (P30291-1) ([2]; experiment wp131): −2.183
logFC of FER (P16591-1) ([3]; Experiment wp108): −0.3577
logFC of FER (P16591-1) ([3]; Experiment wp131): −0.4871
logFC of FER ([3]; experiment wp108): −0.3577
logFC of FER ([3]; experiment wp131): −0.4871
logFC AURKA (O14965) ([4]; experiment wp114): −0.4151
logFC AURKA (O14965) ([4]; experiment wp131): −0.3471
logFC AAK1 ([5]; AAK1 (Q2M218-1), experiment wp108, down): −0.4346
logFC AAK1 ([5]; AAK1 (Q2M218-1), experiment wp114, down): −0.485
logFC AAK1 ([5]; AAK1 (Q2M218-1), experiment wp131, down): −0.7293
logFC AAK1 ([5]; AAK1, accession Q2M218-1, experiment wp108, direction of change down): −0.4346
logFC AAK1 ([5]; AAK1, accession Q2M218-1, experiment wp114, direction of change down): −0.485
logFC AAK1 ([5]; AAK1, accession Q2M218-1, experiment wp131, direction of change down): −0.7293

O=C(COc1cccc2c1C(=O)N(C1CCC(=O)NC1=O)C2=O)NCCCCCCCN1CCc2cc(Nc3ncc(C4CC4)c(NCCCNC(=O)C4CCC4)n3)ccc2C1 (stereo not drawn) [BSJ.04.178]
logFC of GAK (O14976) ([1]; Experiment wp134): −2.402
logFC GAK ([1]; experiment wp134): −2.402
logFC of WEE1 ([2]; experiment wp134): −0.5688
logFC WEE1 (P30291-1) ([2]; experiment wp134): −0.5688
logFC AURKA (O14965) ([4]; experiment wp134): −0.4772
logFC AAK1 ([5]; AAK1 (Q2M218-1), experiment wp134, down): −3.342
logFC AAK1 ([5]; AAK1, accession Q2M218-1, experiment wp134, direction of change down): −3.342

Cc1cnc(Nc2ccc(N3CCN(CCOCCOCCNC(=O)COc4cccc5c4C(=O)N(C4CCC(=O)NC4=O)C5=O)CC3)cc2)nc1Nc1cccc(S(=O)(=O)NC(C)(C)C)c1 (stereo not drawn) [JWG.118]
logFC of GAK (O14976) ([1]; Experiment wp071): −1.972
logFC GAK ([1]; experiment wp071): −1.972
logFC AURKA (O14965) ([4]; experiment wp071): −0.8861
logFC AAK1 ([5]; AAK1 (Q2M218-1), experiment wp071, down): −3.044
logFC AAK1 ([5]; AAK1, accession Q2M218-1, experiment wp071, direction of change down): −3.044

Reference: patent US20240269139A1, “COMPOUNDS FOR TARGETED PROTEIN DEGRADATION OF KINASES” (DANA-FARBER CANCER INSTITUTE, INC., priority 2020, published 2024)
